Patent publication US20110229572A1, “DELIVERY OF DRUG COMBINATIONS” (BIOCOMPATIBLES UK Limited, priority 2007, published 2011)
Read-outs that look alike come from different tables or passages of the source. Values belong to the compound of their own block, whether it stands above or below them.

How the values were obtained:
[1] = cited from earlier work
[2] = P-4135F, cited from earlier work
[3] = cited from earlier work; remark: listed apart in the source
[4] = Loading of doxorubicin and irinotecan into the same high AMPS beads (depletion, UV); assay type: physicochemical; conditions: 1 ml high AMPS beads
Description: Five samples of 500-700 μm High AMPS beads of Example 1 were loaded with doxorubicin and irinotecan following different approaches:
Sample 1: 3.5 mL of irinotecan solution (Campto, Pfizer, 20 mg.mL^−1=70 mg) was loaded into 1 mL of beads for 48 h, to saturate all the sulfonate groups. Then, the depleted solution was removed and the loaded beads were washed with a known volume of deionised water to remove the non-bound drug. The amount of irinotecan loaded into the beads was calculated by depletion, as a difference between the initial and final amounts in the depleted solution and all washings measured by UV at a wavelength of 369 nm. One mL of doxorubicin (Dabur oncology-25 mg.ml^−1) was later added to the same beads and the loading profile determined. […] All solutions were measured by UV at a wavelength of 483 nm wavelength and the amount of drug loaded into the beads determined by depletion. After the beads were loaded and washed with deionised water, in a second step, 1.25 ml of irinotecan solution (20 mg.mL^−1=25 mg) was added to the same beads and the loading profile determined. […]
To determine the loading profiles of all samples, an aliquot of 50 μl was removed from each vial at time 5, 15, 30, 45 min after the addition of each drug, diluted as necessary and read by UV at 483 and 369 nm. […]

[5] = Elution of doxorubicin and irinotecan from the same beads into 200 ml PBS; assay type: physicochemical; conditions: all samples
Description: After being sized, all samples were eluted. Here, the remaining loading solutions were removed using a Pasteur pipette and the loaded beads were transferred to brown flasks containing 200 ml of PBS (Inverclyde Biologicals). At time 5, 15, 30, 45, 60, 90 min, 2 h, 4 h and 24 h, an aliquot of elution medium (4 ml) was removed and replaced with 4 mL of fresh PBS to maintain the volume. All samples were read by UV at 483 and 369 nm wavelengths, using the corresponding standard curves to calculate the amount eluted at each time point.
These two assumptions were made for all calculations. All samples were read at both 483 nm and 369 nm wavelengths. Using the absorbance and the standard curve of doxorubicin at 483 nm, the concentration of doxorubicin in each sample was calculated and using these concentrations and the standard curve of doxorubicin at 369 nm, the absorbance of doxorubicin at this wavelength was calculated.

[6] = Loading of doxorubicin into ibuprofen-loaded low AMPS beads (depletion); assay type: physicochemical
Description: Ibuprofen and doxorubicin solutions were loaded into low AMPS beads simultaneously. In order to achieve this, one sample of 1 ml of 500-700 μm beads was loaded with ibuprofen (according to examples in WO2004073688). The excess packaging solution was removed using a Pasteur pipette and 2 ml of doxorubicin solution (5 mg.ml^−1) were added. After 24 h, a 50 μl aliquot was removed from the depleted solution and measured by UV at 263 nm and 483 nm. The amount of doxorubicin loaded into beads was calculated by depletion, as a difference between the initial and final amounts in the depleted solution (calculations explained below).
These two assumptions were made for all calculations. All samples were read at both wavelengths (263 nm and 483 nm). Using the absorbance at 483 nm the concentration of doxorubicin in each sample was calculated, then using these concentrations and the standard curve of doxorubicin at 263 nm, the absorbance of doxorubicin at 263 nm was calculated. By subtracting this value from the total absorbance at 263 nm, the concentration of ibuprofen, was calculated using the ibuprofen standard curve.
Initially, lyophilised beads as described in WO2004073688 were loaded with ibuprofen/ethanol solution by solvent evaporation and then rehydrated with water and autoclaved for 15 min at 121° C. […]

[7] = Rapamycin and doxorubicin loading into high AMPS beads by two methods; assay type: physicochemical; conditions: Method 2
Description: Unloaded high AMPS bead slurry 1 ml was loaded with doxorubicin solution (5 ml of 10.07 mg/ml, target loading 50 mg/ml Bead) overnight. The doxorubicin-loaded beads were washed with 1 ml DMSO 5 times to remove extra water, and 1 ml 60 mg/mL rapamycin DMSO solution was mixed with the doxorubicin beads for about 30 min. Subsequently, following removal of extra rapamycin DMSO solution, the beads were washed with 5 ml saline until no white drug particles were observed.
1 ml Bead slurry was washed with 1 mL DMSO 5 times and mixed with 1 ml 60 mg/ml rapamycin DMSO solution for 30 min. The loaded beads were then washed with 5 ml saline until no further white drug particles were observed. […]
Doxorubicin loading test: The doxorubicin loading was measured by depletion method in either water or DMSO solution. The loading solution was taken and diluted 10 times and measured by UV at 483 nm to determine the concentration of doxorubicin residue in solution. […] The concentration of rapamycin was determined by UV at 279 nm. […]
Doxorubicin loss determination: The doxorubicin loss during DMSO washing of loaded beads before further loading of rapamycin (Method 2) was determined by measuring the accumulated DMSO washing solution in a volumetric flask at 483 nm. […]
Rapamycin and doxorubicin standard curve: The maximum absorbance of rapamycin is at wavelength 279 nm, which is overlapped with doxorubicin absorbance. […]

HepG2 cells = test: MTS cell viability assay with drug loaded beads; assay type: cell-based, human; conditions: Example 8, MTS, 72 hr exposure
Description: An MTS assay was also conducted on the wells. At 72 hrs, the media from all wells was cautiously removed and each well washed three times with 200 μl sterile PBS. After adding 100 μl PRF media to each well, 20 μl of the prepared MTS solution (Promega) was also added. After a two hours incubation (37° C., 5% CO2) the plate was read at 490 nm using the plate reader and like the LDH assay, if the reading was too high the samples were diluted (75 μl PRF media: 75 μl samples).
Example 7 was repeated substantially as described, with an extended number of beads of one of the drugs. The results of the MTS assay, i.e. showing cell viability % (log scale) of HepG2 cells after 72 hr exposure, concluded as the mean of 6 samples, is shown in FIG. 19.
An MTS assay was used to assess the synergistic cytotoxic effects of dual loaded beads on HepG2 and PSN1 cells. The rapamycin loaded beads and the doxorubicin loaded beads were the same as those described in Example 7. The dual loaded doxorubicin and rapamycin loaded beads were loaded and analysed as described in Example 4 Method 2 using a 1 ml 60 mg/ml rapamycin solution and 1 ml 37.5 mg/ml doxorubicin solution.
The assay was prepared as described in Example 7 using HepG2 cells and additional plates of PSN1 cells for analysis.
An MTS assay (described in example 7) was conducted after 24, 48 and 72 hrs exposure. […]

[8] = Ibuprofen and irinotecan loading into high AMPS beads; assay type: physicochemical
Description: Drug loading: The drug loading procedure is shown in FIG. 9, in which the unloaded high AMPS beads were washed with DMSO to remove the water trapped within the hydrogel. A mixture of ibuprofen solubilised in DMSO and castor oil as crystallisation inhibitor were subsequently mixed with the bead slurry, and kept for about 10 minutes. Following the removal of the loading solution, saline was used to wash the loaded beads until no drug particles nor large oil droplets were observed. The irinotecan loading was achieved by simply mixing the ibuprofen-loaded beads with irinotecan solution (10 mg/mL) by roller-mixing overnight. The final loaded beads were kept in the water solution as product.
1). Ibuprofen. The content of loaded ibuprofen was determined by an HPLC method. […] The collected DMSO solution was topped to the mark in a 10 ml volumetric flask, and the concentration of ibuprofen was measured by HPLC. […] The content of irinotecan in loaded beads was measured by depletion method. […] The loading solution was diluted with water and measured by UV at 369 nm. Compared to the standard curve, the concentration of irinotecan left in loading solution can be calculated.
To determinate the concentration of each component in a combined drug solution, the standard curves for absorption of predetermined concentrations of ibuprofen and irinotecan at 263, 272 and 369 nm in water were measured. […]

[9] = Elution of ibuprofen-irinotecan-loaded beads into PBS; assay type: physicochemical; conditions: after 5 hours, irinotecan alone, combination comparable
Description: The elution of ibuprofen-irinotecan-loaded beads was carried out by mixing 0.24 ml beads with 200 ml PBS (Inverclyde, Bellshill, UK) and roller-mixed on a roller mixer. At certain time point, the solution (5 ml) was taken out for concentration determination by UV and same volume of fresh PBS was added to keep a sink condition.

[10] = cited from earlier work; remark: listed apart in the source

Compound: Nc1nc2c(c(=O)[nH]1)N(C=O)C(CNc1ccc(C(=O)N[C@@H](CCC(=O)O)C(=O)O)cc1)CN2 (some centres unmarked) [LV, leucovorin]
encapsulation rate ([1]; Eudragit P-4135F): 55.4±2.7%
encapsulation rate ([1]; Eudragit RS100): 81.4±8.6%
initial drug loss ([2]; pH 6.8): about 60%
time to complete release ([2]; pH 6.8): ≤ 2 h

Compound: O=c1[nH]cc(F)c(=O)[nH]1 [Sample 5-FU, 5-fluorouracil]
encapsulation efficiency ([3]; PLGA microparticles): 19%
encapsulation efficiency ([3]; encapsulated with Paclitaxel): 30%
encapsulation rate ([1]; Eudragit P-4135F): 48.3±2.0%
encapsulation rate ([1]; Eudragit RS100): 60.3±9.7%
5-FU release ([2]; pH 6.8, within 4 h): lower than 25%
time of nearly immediate release ([2]; pH 7.4): ≤ 15 min

maximum loading capacity of the beads [4]: ~40 mg
doxorubicin released ([5]; in 24 h): < 25%
maximum amount of doxorubicin loaded into ibuprofen loaded beads ([6]; 1 ml low AMPS beads, doxorubicin solution 5 mg/ml, 24 h): 8.3 mg
maximum capacity of low AMPS beads for doxorubicin ([6]; loaded with this drug alone): ~14 mg/mL
doxorubicin loss during DMSO washing before rapamycin loading [7]: about 6.71 mg/ml
Compound: COc1cccc2c1C(=O)c1c(O)c3c(c(O)c1C2=O)C[C@@](O)(C(=O)CO)C[C@@H]3O[C@H]1C[C@H](N)[C@H](O)[C@H](C)O1 [doxorubicin]
cytotoxicity when eluted individually (HepG2 cells): more cytotoxic to the cells than rapamycin

maximum loading capacity of the beads [4]: 52 mg
irinotecan released ([5]; in <4 h): > 99 % mg
maximum irinotecan loading capacity for unloaded beads [8]: 50 to 60 mg/mL
irinotecan loading efficiency ([8]; unloaded beads, below maximum loading capacity): above 98%
irinotecan eluted [9]: ~100%
Compound: CCc1c2c(nc3ccc(OC(=O)N4CCC(N5CCCCC5)CC4)cc13)-c1cc3c(c(=O)n1C2)COC(=O)[C@]3(O)CC [irinotecan]

Compound: heparin
initial burst release from the co-matrix ([10]; uncoated): 32.7%
initial burst release from the co-matrix ([10]; with polyethylene glycol coatings, for 24 hr): 25.4%
